The record followed here is patent publication US6979686B1, “Substituted pyrazoles as p38 kinase inhibitors” (Pharmacia Corporation, priority 2001, dated 2005).

The target of the first test is T1, human p38 kinase alpha (Homo sapiens, UniProt Q16539).
T1 construct: GST (N, cleaved yes); made in house; host or cells: E. coli DH10B
T1 sequence (Q16539 whole entry): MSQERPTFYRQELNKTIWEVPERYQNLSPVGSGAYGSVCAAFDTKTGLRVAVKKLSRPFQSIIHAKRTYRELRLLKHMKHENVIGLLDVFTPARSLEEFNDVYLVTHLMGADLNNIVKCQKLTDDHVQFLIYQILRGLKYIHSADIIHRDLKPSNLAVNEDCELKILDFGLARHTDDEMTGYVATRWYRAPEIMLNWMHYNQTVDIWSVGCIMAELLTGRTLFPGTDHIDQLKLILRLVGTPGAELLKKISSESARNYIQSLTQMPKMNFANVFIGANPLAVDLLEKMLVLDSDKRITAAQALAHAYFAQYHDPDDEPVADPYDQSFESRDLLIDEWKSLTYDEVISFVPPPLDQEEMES
In words: p38 kinase in vitro assay, phosphorylation of biotinylated PHAS-I with 32P-ATP. The format is biochemical. As to conditions: @ 1.0 uM. How it is done: The coding region of the human p38a cDNA was obtained by PCR-amplification from RNA isolated from the human monocyte cell line THP.1. […] Random primer, dNTP's and Superscript™ reagents were all purchased from Life-Technologies, Gaithersburg, Mass. The reaction was incubated at 42° C. for 1 hour. Amplification of p38 cDNA was performed by aliquoting 5 μl of the reverse transcriptase reaction into a 100 μl PCR reaction containing the following: 80 μl dH2O, 2 μl 50 mM DNTP's, 1 μl each of forward and reverse primers (50 pmol/μl), 10 μl of 10×buffer and 1 μl Expand™ polymerase (Boehringer Mannheim). The PCR primers incorporated BamHI sites onto the 5′ and 3′ end of the amplified fragment, and were purchased from Genosys. […] The PCR amplification was carried out in a DNA Thermal Cycler (Perkin Elmer) by repeating 30 cycles of 94° C. for 1 minute, 60° C. for 1 minute and 68° C. for 2 minutes. After amplification, excess primers and unincorporated dNTP's were removed from the amplified fragment with a Wizard™ PCR prep (Promega) and digested with BamHI (New England Biolabs). The BamHI digested fragment was ligated into BamHI digested PGEX 2T plasmid DNA (PharmaciaBiotech) using T-4 DNA ligase (New England Biolabs) as described by T. Maniatis, Molecular Cloning: A Laboratory Manual, 2nd ed. […] The ligation reaction was transformed into chemically competent E. coli DH10B cells purchased from Life-Technologies following the manufacturer's instructions. Plasmid DNA was isolated from the resulting bacterial colonies using a Promega Wizard™ miniprep kit.
Expression of Human p38a:
Overnight cultures were grown in-Luria Broth (LB) containing […] ampicillin. The next day, 500 ml of fresh LB was inoculated with 10 ml of overnight culture, and grown in a 2 liter flask at 37° C. with constant shaking until the culture reached an absorbance of 0.8 at 600 nm. Expression of the fusion protein was induced by addition of isopropyl b-D-thiogalactosidse (IPTG) to a final concentration of 0.05 mM. The cultures were shaken for three hours at room temperature, and the cells were harvested by centrifugation. The cell pellets were stored frozen until protein purification.
Purification of p38 Kinase-α:
All chemicals were from Sigma Chemical Co. unless noted. Twenty grams of E. coli cell pellet collected from five 1 L shake flask fermentations was resuspended in a volume of PBS (140 mM NaCl, 2.7 mM KCl, 10 mM Na2HPO4, 1.8 mM KH2PO4, pH 7.3) up to 200 ml. The cell suspension was adjusted to 5 mM DTT with 2 M DTT and then split equally into five 50 ml Falcon conical tubes. The cells were sonnicated (Ultrasonics model W375) with a 1 cm probe for 3×1 minutes (pulsed) on ice. Lysed cell material was removed by centrifugation (12,000×g, 15 minutes) and the clarified supernatant applied to glutathione-sepharose resin (Pharmacia).
Glutathione-sepharose Affinity Chromatography:
The resin was collected by centrifugation (600×g, 5 min) and washed with 2×150 ml PBS/1% Triton X-100, followed by 4×40 ml PBS. To cleave the p38 kinase from the GST-p38 fusion protein, the glutathione-sepharose resin was resuspended in 6 ml PBS containing 250 units thrombin protease (Pharmacia, specific activity>7500 units/mg) and mixed gently for 4 hours at room temperature. The glutathione-sepharose resin was removed by centrifugation (600×g, 5 min) and washed 2×6 ml with PBS. The PBS wash fractions and digest supernatant containing p38 kinase protein were pooled and adjusted to 0.3 mM PMSF.
Mono O Anion Exchange Chromatography:
The thrombin-cleaved p38 kinase was further purified by FPLC-anion exchange chromatography.
As to `O=C(NCCc1[nH]nc(-c2ccc(F)cc2)c1-c1ccncc1)Nc1cccc(F)c1` [Example B-1046], the “P38 alpha kinase % inhib @ conc. (uM)” value amounted to 72.0% @. With `COc1ccc(NC(=O)NCCc2[nH]nc(-c3ccc(F)cc3)c2-c2ccncc2)cc1` [Example B-1047], the “P38 alpha kinase % inhib @ conc. (uM)” value came out at 72.0% @. Same read-out and setting: in the case of `O=C(NCCc1[nH]nc(-c2ccc(F)cc2)c1-c1ccncc1)C1CCCC1` [Example B-1004] it was 79.0% @.

Consider `CCCS(=O)(=O)NCCCc1[nH]nc(-c2ccc(F)cc2)c1-c1ccncc1` [Example B-1198], for which the “P38 alpha kinase % inhib @ conc.” value is 92.0% @.

Turning to `CCOC(=O)C(CCSC)NC(=O)NCCc1[nH]nc(-c2ccc(F)cc2)c1-c1ccncc1` (centres unmarked) [Example B-0935], the “P38 alpha kinase % inhib @ conc. (uM)” value is 69.0% @.

For `Cc1ccc(S(=O)(=O)NCCCc2[nH]nc(-c3ccc(F)cc3)c2-c2ccncc2)cc1` [Example B-1204], the “P38 alpha kinase % inhib @ conc.” value worked out at 68.0% @. As to `O=C(NCCc1[nH]nc(-c2ccc(F)cc2)c1-c1ccncc1)c1cccnc1` [Example B-1005], the “P38 alpha kinase % inhib @ conc. (uM)” value turned out to be 58.0% @.

Regarding `C=CCNC(=O)NCCCc1[nH]nc(-c2ccc(F)cc2)c1-c1ccncc1` [Example B-1217], the “P38 alpha kinase % inhib @ conc.” value is 87.0% @.

Staying with this test, now noted: @ 1.0 uM; read-out: P38 alpha kinase % inhib @ conc.
As to `CCCCOc1ccc(C(=O)NCc2[nH]nc(-c3ccc(F)cc3)c2-c2ccncc2)cc1` [Example B-0041], the inhibition at 1 µM was 65%. The same measure, in the same setting: in the case of `CCCCCc1ccc(C(=O)NCc2[nH]nc(-c3ccc(F)cc3)c2-c2ccncc2)cc1` [Example B-0012] it was 30%.

The test is the same for the next values; noted with them: @ 10.0 uM.
For the compound `Cc1c(-c2ccncc2)c(-c2ccc(F)cc2)nn1CC(=O)NC1CCC(C(C)(C)C)CC1` (centres unmarked) [Example B-2350], the “P38 alpha kinase % inhib @ conc.” value is 38.0% @.

Consider `Cc1c(-c2ccncc2)c(-c2ccc(F)cc2)nn1CC(=O)Nc1ccccc1SCCCc1ccccc1` [Example B-2460], for which the “P38 alpha kinase IC50, uM or % inhib @ conc. (uM): % inhib” value (“P38 alpha kinase IC50 … % inhib” below) amounted to 80.0% @. As for `Cc1c(-c2ccncc2)c(-c2ccc(F)cc2)nn1CC(=O)N1CCCCC1` [Example B-2401], the “P38 alpha kinase IC50 … % inhib” value came out at 78.0% @. The same measure, in the same setting: in the case of `Cc1c(-c2ccncc2)c(-c2ccc(F)cc2)nn1CC(=O)Nc1cc([N+](=O)[O-])cc([N+](=O)[O-])c1` [Example B-2430] it was 90.0% @.

As for `Cc1c(-c2ccncc2)c(-c2ccc(F)cc2)nn1CC(=O)NC(C)c1ccc(Br)cc1` (centres unmarked) [Example B-2344], the “P38 alpha kinase % inhib @ conc.” value worked out at 71.0% @. For `Cc1c(-c2ccncc2)c(-c2ccc(F)cc2)nn1CC(=O)N(C)CCc1ccncc1` [Example B-2386], the “P38 alpha kinase IC50 … % inhib” value is given as 38.0% @. Take `Cc1c(-c2ccncc2)c(-c2ccc(F)cc2)nn1CC(=O)NC1CCCCCC1` [Example B-2335]: the “P38 alpha kinase % inhib @ conc.” value came out at 82.0% @. With `Cc1c(-c2ccncc2)c(-c2ccc(F)cc2)nn1CC(=O)Nc1ccc(Cl)cc1` [Example B-2418], the “P38 alpha kinase IC50 … % inhib” value was found to be 88.0% @. Same read-out and setting: in the case of `Cc1c(-c2ccncc2)c(-c2ccc(F)cc2)nn1CC(=O)Nc1ccc(C2CCCCC2)cc1` [Example B-2427] it was 87.0% @.

As for `CCCCCCOc1ccc(NC(=O)Cn2nc(-c3ccc(F)cc3)c(-c3ccncc3)c2C)cc1` [Example B-2436], the “P38 alpha kinase IC50 … % inhib” value turned out to be 80.0% @. As for `Cc1c(-c2ccncc2)c(-c2ccc(F)cc2)nn1CC(=O)Nc1ccc(-n2ccc(C(F)(F)F)n2)cc1` [Example B-2455], the “P38 alpha kinase IC50 … % inhib” value was found to be 87.0% @.

Still in this test, the particulars now being: @ 100.0 uM.
Turning to `COc1ccc(CCN(CCC#N)C(=O)Cn2nc(-c3ccc(F)cc3)c(-c3ccncc3)c2C)cc1OC` [Example B-2403], the “P38 alpha kinase IC50 … % inhib” value came to 72% @.

The same test, now with this note: activated human p38 kinase alpha, PHAS-I substrate, 50 μM unlabeled ATP; read-out: p38 kinase IC50.
For the compound `Cc1[nH]nc(-c2cccc(F)c2C)c1-c1ccncc1` [Example A-33], the IC50 was found to be 2500 nM. The same measure, in the same setting: in the case of `Cc1cc(C)cc(-c2n[nH]c(C)c2-c2ccncc2)c1` [Example A-34] it was 8000 nM.

Staying with this test, now noted: in vitro P38-alpha kinase inhibition; read-out: P38 alpha kinase IC50.
As for `O=C(NC(Cc1ccccc1)c1[nH]nc(-c2ccc(F)cc2)c1-c1ccncc1)c1cccnc1` (centres unmarked) [Example B-0821], the IC50 was determined as 1440 nM. Regarding `CC(NC(=O)NC(C)c1[nH]nc(-c2ccc(F)cc2)c1-c1ccncc1)c1ccccc1` (centres unmarked) [Example B-0414], the IC50 was 2540 nM.

On to `CC(NS(=O)(=O)c1ccccc1S(C)(=O)=O)c1[nH]nc(-c2ccc(F)cc2)c1-c1ccncc1` (centres unmarked) [Example B-0666], for which the IC50 was found to be 170 nM. Still for that read-out and setting: in the case of `COc1ccc(S(=O)(=O)NC(Cc2ccccc2)c2[nH]nc(-c3ccc(F)cc3)c2-c2ccncc2)cc1OC` (centres unmarked) [Example B-0767] it was 80 nM. Same read-out and setting: in the case of `CC(NS(=O)(=O)c1ccc(F)c(Cl)c1)c1[nH]nc(-c2ccc(F)cc2)c1-c1ccncc1` (centres unmarked) [Example B-0643] it was 69 nM. The same measure, in the same setting: in the case of `CC(NC(=O)c1ccccc1Cl)c1[nH]nc(-c2ccc(F)cc2)c1-c1ccncc1` (centres unmarked) [Example B-0691] it was 160 nM; in that of `CC(NS(=O)(=O)c1ccc(-c2ccccn2)s1)c1[nH]nc(-c2ccc(F)cc2)c1-c1ccncc1` (centres unmarked) [Example B-0660], 88 nM; in that of `Cc1ccc(S(C)(=O)=O)cc1S(=O)(=O)NC(C)c1[nH]nc(-c2ccc(F)cc2)c1-c1ccncc1` (centres unmarked) [Example B-0668], 270 nM. On to `CC(NS(=O)(=O)c1ccc2ccccc2c1)c1[nH]nc(-c2ccc(F)cc2)c1-c1ccncc1` (centres unmarked) [Example B-0652], for which the IC50 amounted to 190 nM. Same read-out and setting: in the case of `O=C(Nc1ccc(F)cc1)NC(Cc1ccccc1)c1[nH]nc(-c2ccc(F)cc2)c1-c1ccncc1` (centres unmarked) [Example B-0728] it was 20000 nM. The same measure, in the same setting: in the case of `CC(NC(=O)c1ccc(I)cc1)c1[nH]nc(-c2ccc(F)cc2)c1-c1ccncc1` (centres unmarked) [Example B-0540] it was 3620 nM; in that of `CC(NS(=O)(=O)c1cc(S(=O)(=O)c2ccccc2)cs1)c1[nH]nc(-c2ccc(F)cc2)c1-c1ccncc1` (centres unmarked) [Example B-0661], below 100 nM.

As for `O=S(=O)(NCCc1[nH]nc(-c2ccc(F)cc2)c1-c1ccncc1)c1cc(S(=O)(=O)c2ccccc2)cs1` [Example B-1112], the IC50 was 580 nM. Regarding `C[C@@H](NS(=O)(=O)Cc1ccccc1[N+](=O)[O-])c1[nH]nc(-c2ccc(F)cc2)c1-c1ccncc1` [Example B-0442], the IC50 was below 100 nM. On the same count and under the same terms, in the case of `CC(NS(=O)(=O)c1ccc(C#N)cc1)c1[nH]nc(-c2ccc(F)cc2)c1-c1ccncc1` (centres unmarked) [Example B-0656] it was 7 nM; in that of `O=C(Cc1cccs1)NC(Cc1ccccc1)c1[nH]nc(-c2ccc(F)cc2)c1-c1ccncc1` (centres unmarked) [Example B-0790], 1000 nM.

Staying with this test, now noted: in vitro P38-alpha kinase; read-out: P38 alpha kinase IC50.
`O=S(=O)(NCCCc1[nH]nc(-c2ccc(F)cc2)c1-c1ccncc1)c1cccc2cnccc12` [Example B-1295]: the IC50 amounted to 79 nM.

In the case of `Cc1noc(C)c1C(=O)NCc1[nH]nc(-c2ccc(F)cc2)c1-c1ccncc1` [Example B-0304], the IC50 was determined as 550 nM.

For the compound `O=C(NCCCc1[nH]nc(-c2ccc(F)cc2)c1-c1ccncc1)c1ccccc1F` [Example B-1351], the IC50 stood at 68 nM. On the same count and under the same terms, in the case of `COCCNC(=O)Cn1nc(-c2ccc(F)cc2)c(-c2ccncc2)c1C` [Example B-2292] it was 8820 nM; in that of `O=S(=O)(NCCCc1[nH]nc(-c2ccc(F)cc2)c1-c1ccncc1)c1ccc(Cl)s1` [Example B-1278], 120 nM; in that of `O=S(=O)(c1ccccc1OC(F)(F)F)N1CCC(c2[nH]nc(-c3ccc(F)cc3)c2-c2ccncc2)CC1` [Example B-1463], 2340 nM.

For `Cc1c(-c2ccncc2)c(-c2ccc(F)cc2)nn1CC(=O)NCC(c1ccccc1)c1ccccc1` [Example B-2277], the IC50 turned out to be 14900 nM.

As usually defined, the IC50 is the midpoint of a concentration-inhibition curve.
